Laboratory results from the NIST ThermoML archive (doi:10.1016/j.jct.2017.07.011).
± gives the expanded uncertainty stated by the source.

Conditions: 100 kPa, Liquid, Vibrating tube method

CCC(C)(C)O [2-methylbutan-2-ol]
mass density (273.65 K): 826.7 ± 2 kg/m3 | mass density (274.15 K): 826.3 ± 2 kg/m3 | mass density (274.65 K): 825.8 ± 2 kg/m3 | mass density (275.15 K): 825.4 ± 2 kg/m3 | mass density (275.65 K): 824.9 ± 2 kg/m3 | mass density (276.15 K): 824.5 ± 2 kg/m3 | mass density (276.65 K): 824 ± 2 kg/m3 | mass density (277.15 K): 823.5 ± 2 kg/m3 | mass density (277.65 K): 823.1 ± 2 kg/m3 | mass density (278.15 K): 822.6 ± 2 kg/m3 | mass density (278.65 K): 822.2 ± 2 kg/m3 | mass density (279.15 K): 821.7 ± 2 kg/m3 | mass density (279.65 K): 821.3 ± 2 kg/m3 | mass density (280.15 K): 820.8 ± 2 kg/m3 | mass density (280.65 K): 820.3 ± 2 kg/m3 | mass density (281.15 K): 819.9 ± 2 kg/m3 | mass density (281.65 K): 819.4 ± 2 kg/m3 | mass density (282.15 K): 819 ± 2 kg/m3

CCC(O)CC [3-pentanol]
mass density (273.65 K): 835.7 ± 2.1 kg/m3 | mass density (274.15 K): 835.3 ± 2.1 kg/m3 | mass density (274.65 K): 834.9 ± 2.1 kg/m3 | mass density (275.15 K): 834.5 ± 2.1 kg/m3 | mass density (275.65 K): 834.1 ± 2.1 kg/m3 | mass density (276.15 K): 833.7 ± 2.1 kg/m3 | mass density (276.65 K): 833.3 ± 2.1 kg/m3 | mass density (277.15 K): 832.9 ± 2.1 kg/m3 | mass density (277.65 K): 832.5 ± 2.1 kg/m3 | mass density (278.15 K): 832.1 ± 2.1 kg/m3 | mass density (278.65 K): 831.7 ± 2.1 kg/m3 | mass density (279.15 K): 831.3 ± 2.1 kg/m3 | mass density (279.65 K): 830.9 ± 2.1 kg/m3 | mass density (280.15 K): 830.5 ± 2.1 kg/m3 | mass density (280.65 K): 830.1 ± 2.1 kg/m3 | mass density (281.15 K): 829.7 ± 2.1 kg/m3 | mass density (281.65 K): 829.3 ± 2.1 kg/m3 | mass density (282.15 K): 828.9 ± 2.1 kg/m3

CCCC(C)O (centres undefined) [pentan-2-ol]
mass density (273.65 K): 824 ± 2.1 kg/m3 | mass density (274.15 K): 823.6 ± 2.1 kg/m3 | mass density (274.65 K): 823.2 ± 2.1 kg/m3 | mass density (275.15 K): 822.8 ± 2.1 kg/m3 | mass density (275.65 K): 822.5 ± 2.1 kg/m3 | mass density (276.15 K): 822.1 ± 2.1 kg/m3 | mass density (276.65 K): 821.7 ± 2.1 kg/m3 | mass density (277.15 K): 821.3 ± 2.1 kg/m3 | mass density (277.65 K): 820.9 ± 2.1 kg/m3 | mass density (278.15 K): 820.6 ± 2.1 kg/m3 | mass density (278.65 K): 820.2 ± 2.1 kg/m3 | mass density (279.15 K): 819.8 ± 2.1 kg/m3 | mass density (279.65 K): 819.4 ± 2.1 kg/m3 | mass density (280.15 K): 819.1 ± 2.1 kg/m3 | mass density (280.65 K): 818.7 ± 2.1 kg/m3 | mass density (281.15 K): 818.3 ± 2.1 kg/m3 | mass density (281.65 K): 817.9 ± 2.1 kg/m3 | mass density (282.15 K): 817.5 ± 2.1 kg/m3
